Data as given in patent US6816257B2, “Method and apparatus for detecting microparticles in fluid samples” (priority 1997, dated 2004).

Tested on: B. plicatilis rotifer
Test: Rotifer feeding rate toxicity test (fluosphere ingestion measured by laser fluorescence capillary device)
Assay type: in vivo, Brachionus plicatilis
Method: Water quality monitoring using rotifers was performed using a capillary tube with an internal diameter of 70 μm, a narrow band, 635 nm, 3 mW diode laser with a beam diameter of 40 μm was used. Interference filters were selected to transmit 12% at 670 nm (20 nm FWM), and 10^−6 at all other wavelengths.
1. A live B. plicatilis rotifer culture was obtained from Aqua-Farms, Fla. These rotifers were chosen because they are easy to raise, and the influence of toxic samples on their feeding, reproduction, and death rates have been studied extensively. The average concentration of rotifers in a 100 ml vial was counted using five 20 μl samples examined under a 50× microscope. […]
2. Two samples of 8 ml each were used to make the feeding rate measurements, a reference sample and test sample. These two vials were filled with the 500 rotifers/ml reference solution.
3. A […] diazanon solution was prepared using the rotifer medium solution, so as to maintain water quality parameters such as pH, O2, alkalinity, salinity, and temperature as constant as possible. A 20 μl amount of the diazanon solution was added to test sample.
4. After a 5 minute incubation, 20 μl of a 40×10^6 beads/ml solution of crimson fluospheres was added to both the reference and test samples. The time was noted as t=0.
5. Using two identical syringes connected with a luer union to a 100 μm piece of nylon tubing terminated with a 20 μm plankton filter, a 50 μl sample was extracted from the reference and test samples. In both cases, the organisms were filtered out from the bead solution.
6. The reference and test samples were successively passed through the test chamber using the syringe pump at a flow rate of 15 μl/min. […]
Each data file was retrieved, using TOXANA™, a time series data analysis software program. […] An assessment of the signal baseline mean and variance values (where no peak is detected) was made for each file. […]
The number of peaks with an intensity above Td were calculated for each file, as well as the average peak intensity, the average peak width, and the average peak area.

CCOP(=S)(OCC)Oc1cc(C)nc(C(C)C)n1 [diazanon]
feeding rate reduced by a factor (vs control sample) (exposure to 1 ppm of diazanon, 500 rotifers/ml, FIG. 7B): 30
ingestion rate per organism (test sample containing 1 ppm of diazanon, 500 rotifers/ml, 5 minute incubation, FIG. 7B): 10^−3 beads/sec
feeding rate (test sample containing 1 ppm of diazanon, 600 rotifers/ml, FIG. 7C): less than 0.05 beads/min
